Source: PMC10470313, “Developing a peptide to disrupt cohesin head domain interactions” (iScience, 2023)
Where no end group is shown, it is not given here.

What was measured:
Smc3 head domain = biological target: T1, Smc3 head domain (Saccharomyces cerevisiae, UniProt P47037); assay: Field-effect biosensing (FEB Agile R100) binding of peptide to Smc3 head domain; conditions: 500 nM peptide immobilized on graphene chip, Hill fit or kon/koff
T1 construct: C′ terminal (amino acids 1001-1230); linker […]; made in house; host or cells: E. coli BL21
T1 sequence (P47037 with tags, fused parts or gaps): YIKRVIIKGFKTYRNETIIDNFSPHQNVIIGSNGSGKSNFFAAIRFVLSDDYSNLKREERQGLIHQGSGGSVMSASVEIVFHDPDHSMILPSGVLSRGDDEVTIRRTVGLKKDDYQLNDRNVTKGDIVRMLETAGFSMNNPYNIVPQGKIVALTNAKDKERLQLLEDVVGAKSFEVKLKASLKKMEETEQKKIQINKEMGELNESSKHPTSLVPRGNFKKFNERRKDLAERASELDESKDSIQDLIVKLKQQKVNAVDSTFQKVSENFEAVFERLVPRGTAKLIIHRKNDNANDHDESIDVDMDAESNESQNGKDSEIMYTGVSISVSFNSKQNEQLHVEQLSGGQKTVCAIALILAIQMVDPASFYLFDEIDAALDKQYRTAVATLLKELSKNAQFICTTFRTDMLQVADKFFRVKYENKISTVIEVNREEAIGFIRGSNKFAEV
Experimental: Accordingly, we explored the ability of CIP3 to bind Smc3 in-vitro. We synthesized CIP3-TAT and purified it (Figures S2A and S2B. Purification of CIP3-TAT and Smc3 head domain, related to Figure 3), and the kinetic binding of the peptide to a purified Smc3 head domain (Figures S2C and S2D. Purification of CIP3-TAT and Smc3 head domain, related to Figure 3) was explored by FEB Agile R100 (Figures 3C and 3D). The binding kinetics is determined by measuring the current of the chip that is changed when the analyzed molecules form a complex. The peptide was immobilized on the sensor chip, and the analyte, purified Smc3 head domain, was applied in solution to the chip. The changes in the current were monitored as increasing concentrations of analyte were applied to the chip. […]
The binding kinetics of cohesin-inhibiting peptide 3 (CIP3) to Smc3 were measured by field-effect biosensing (FEB) Agile R100 label-free binding assay (Cardea), following their standard protocol, and as we have done previously,.[65]^,[66]^,[67] […] Next, PBS was aspirated, and the changes in the baseline current were monitored in real-time, using 20 μM, 50 μM, 100 μM, 200 μM, 500 μΜ, 1000 μM, 1500 μM, 2000 μM, and 4000 μM of purified Smc3 head domain. Kd values were calculated using DataLINE 2.0 software by applying either a Hill equation fit or using kon and koff values at a single concentration. […]

[1] = tested on: Smc3-GFP (cohesin holocomplex) in yeast protein extract; assay: Microscale thermophoresis (MST) binding in yeast cell extract; conditions: 10 μM CIP3-TAT (Fig S3; method b75: 5 μM), extract of yAM-945 strain, MST binding mode, no binding constants
Experimental: We validated the in vitro binding of CIP3 to Smc3 by exploring the formation of the complex in a yeast cell extract in which Smc3 was fused to GFP. Protein extract from the yAM-945 strain containing Smc3-GFP was supplemented with 10 μM CIP3-TAT and analyzed by microscale thermophoresis (MST) in binding mode. In this assay, the migration of a fluorescent protein in a microscale temperature gradient is monitored. Changes in the physical-chemical properties of the protein, induced by interaction with another protein or a small molecule, will change the migration properties of the protein. While biochemical constants of the binding cannot be determined under these conditions, as the concentration of Smc3-GFP in the extract is undetermined.
Yeast strain yAM-945 cells containing Smc3-GFP were grown in SD-URA galactose to mid-log phase. Cells were collected by centrifugation and washed with water. The cell pellet was resuspended in 350 μl of MST Buffer (NanoTemper) supplemented with 0.05% Tween-20 (Sigma). Glass beads were added, and cells were lyzed by 4 cycles of 1 minute in a bullet blender (next advance). The protein extract was clarified by centrifugation at 1000 g for 5 minutes. […] The formation of the CIP3-TAT and cohesin complex was analyzed by Monolith NT.115 (NanoTemper) in the binding mode that detects the formation of complexes without calculating the binding constants.

KRFKDMEYLSGGEKTGGYGRKKRRQRRR [CIP3-TAT]
Kd (Smc3 head domain; with ATP (10 mM), Smc3 incubated with ATP before measuring, Smc3 head domain 20-4000 μM (0.02–4 mM)): 544.2 ± 0.06 nM | Kd (Smc3 head domain; without ATP, Smc3 head domain 20-4000 μM (0.02–4 mM) in PBS): 53.86 ± 0.03 nM | complex formation with Smc3-GFP/cohesin [1]: supported the formation of the Smc3/CIP3 complex
